Data published in patent US8008291B2 (Mimetica Pty Ltd, priority 2008, dated 2011).

Target: T1, human MC5R (hMC5R) (Homo sapiens, UniProt P33032)
T1 construct: purchased Perkin Elmer RBXMC5M400UA
Experiment: Human MC5R radioligand binding assay (membranes, [125I] NDP-MSH displacement)
Settings: hMC5R binding; tested as trifluoroacetate or hydrochloride salts, or free bases; read-out: MC5R radioligand IC50
Description: Assessments of compound binding to human MC5R (hMC5R) ) by displacement of an ^125I-labeled NDP-MSH receptor ligand peptide were performed essentially as described in the data sheets produced by Perkin Elmer to accompany their frozen hMC5R membranes (Perkin Elmer catalog number RBXMC5M400UA).
[^125I] NDP-MSH: radiolabeled in house and purified by HPLC:
• Na^125I (0.5 mCi, 17.4 Ci/mg) was added to 50 μL sodium phosphate (50 mM, pH7.4) in an eppendorf tube precoated with IODOGEN. After incubation for 10 mins the phosphate buffer containing the iodine was added to NDP-MSH (10 ul at 1 mg/mL) in a separate eppendorf tube. This was incubated for a further 10 mins. The iodinated NDP-MSH was purified by HPLC on a Zorbax SB 300 column using solvent A: 0.05% TFA and solvent B: 90% acetonitrile 0.045% TFA with a linear gradient, 0-67% B over 60 mins. […] Resuspended membranes were kept on ice until they were added to the wells of the plate. Binding Protocol for 400 microassays per vial: • Assays were performed in 96 well polypropylene plates. […] This was incubated for 1 hr at 37° C.

T1 sequence (P33032 whole entry): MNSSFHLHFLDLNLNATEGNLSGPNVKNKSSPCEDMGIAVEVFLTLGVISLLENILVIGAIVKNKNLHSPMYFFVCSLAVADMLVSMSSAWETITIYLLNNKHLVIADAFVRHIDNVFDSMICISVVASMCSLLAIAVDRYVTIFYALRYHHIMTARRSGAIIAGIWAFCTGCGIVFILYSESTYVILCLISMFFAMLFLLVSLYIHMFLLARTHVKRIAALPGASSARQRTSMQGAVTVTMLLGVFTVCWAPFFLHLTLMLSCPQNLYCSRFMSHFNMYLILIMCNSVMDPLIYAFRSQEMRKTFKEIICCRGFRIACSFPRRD

IC50 [nM] | Structure (SMILES)
< 100 | CC(C)NCC[C@@H]1N[C@H](CNC(=O)c2ccc(Cl)c(Cl)c2)CCN(Cc2cc(Cl)cc(Cl)c2)C1=O [Compound 439, 3,4-dichloro-N-(((3S,5S)-1-(3,5-dichlorobenzyl)-3-(2-(isopropylamino)ethyl)-2-oxo-1,4-diazepan-5-yl)methyl)benzamide]
< 1000 | N=C(N)NCCC[C@@H]1N[C@H](CNC(=O)c2ccc3ccccc3c2)CCN(CC(OCc2ccccc2)c2ccccc2)C1=O (stereo partly drawn) [Compound 291, N-(((3S,5S)-1-(2-(benzyloxy)-2-phenylethyl)-3-(3-guanidinopropyl)-2-oxo-1,4-diazepan-5-yl)methyl)-2-naphthamide]
< 1000 | C=C(C)C(CC)CN1CC[C@@H](CNC(=O)c2ccc(Cl)c(Cl)c2)N[C@@H](CCN2CCCCC2)C1=O (stereo partly drawn) [Compound 476, 3,4-dichloro-N-(((3S,5S)-1-(2-ethyl-3-methylbut-3-enyl)-2-oxo-3-(2-(piperidin-1-yl)ethyl)-1,4-diazepan-5-yl)methyl)benzamide]
< 10000 | NCCC[C@@H]1N[C@H](CNC(=O)c2ccc3ccccc3c2)CCN(Cc2ccc(Cl)c(Cl)c2)C1=O [Compound 320, N-(((3S,5S)-3-(3-aminopropyl)-1-(3,4-dichlorobenzyl)-2-oxo-1,4-diazepan-5-yl)methyl)-2-naphthamide]
< 100 | CC[C@H](CN1CCC(CNC(=O)c2ccc3cc(Cl)ccc3c2)NC(C2CCN(CC)CC2)C1=O)c1ccccc1 (stereo partly drawn) [Compound 455, 6-chloro-N-((3-(1-ethylpiperidin-4-yl)-2-oxo-1-((S)-2-phenylbutyl)-1,4-diazepan-5-yl)methyl)-2-naphthamide]
< 1000 | O=C(NC[C@@H]1CCN(Cc2ccc(Cl)cc2Cl)C(=O)[C@H](CCN2CCCCC2)N1)c1ccc(Cl)c(Cl)c1 [Compound 503, 3,4-dichloro-N-(((3S,5S)-1-(2,4-dichlorobenzyl)-2-oxo-3-(2-(piperidin-1-yl)ethyl)-1,4-diazepan-5-yl)methyl)benzamide]
< 1000 | CC[C@H](CN1CC[C@@H](CNC(=O)c2ccc(Cl)c(Cl)c2)N[C@@H](CCN2CCCC(F)(F)C2)C1=O)c1ccccc1 [Compound 484, 3,4-dichloro-N-(((3S,5S)-3-(2-(3,3-difluoropiperidin-1-yl)ethyl)-2-oxo-1-((S)-2-phenylbutyl)-1,4-diazepan-5-yl)methyl)benzamide]
< 10000 | CC(=O)N[C@H](Cc1ccc2ccccc2c1)[C@@H]1CCN(CC(c2ccccc2)c2ccccc2)C(=O)[C@H](CCCNC(=N)N)N1 [Compound 85, N—((R)-1-((3S,5S)-1-(2,2-diphenylethyl)-3-(3-guanidinopropyl)-2-oxo-1,4-diazepan-5-yl)-2-(naphthalen-2-yl)ethyl)acetamide]
< 1000 | CC[C@H](CN1CC[C@@H](CNC(=O)c2ccc3cc(Cl)ccc3c2)N[C@@H](CC(C)(C)N)C1=O)c1ccccc1 [Compound 463, N-(((3S,5S)-3-(2-amino-2-methylpropyl)-2-oxo-1-((S)-2-phenylbutyl)-1,4-diazepan-5-yl)methyl)-6-chloro-2-naphthamide]
< 10000 | CC(=O)N[C@H](CN1CC[C@@H](CNC(=O)c2ccc3ccccc3c2)N[C@@H](CCCNC(=N)N)C1=O)c1ccccc1 [Compound 265, N-(((3S,5S)-1-((S)-2-acetamido-2-phenylethyl)-3-(3-guanidinopropyl)-2-oxo-1,4-diazepan-5-yl)methyl)-2-naphthamide]
< 10 | CC[C@H](CN1CC[C@@H](CNC(=O)c2ccc(Cl)c(Cl)c2)N[C@@H](CCN2CCCC[C@@H]2C)C1=O)c1ccccc1 [Compound 453, 3,4-dichloro-N-(((3S,5S)-3-(2-((S)-2-methylpiperidin-1-yl)ethyl)-2-oxo-1-((S)-2-phenylbutyl)-1,4-diazepan-5-yl)methyl)benzamide]
< 10000 | CC1CCCC(C)C1CN1CC[C@@H](CNC(=O)c2ccc3ccccc3c2)N[C@@H](CCCN)C1=O (stereo partly drawn) [Compound 384, N-(((3S,5S)-3-(3-aminopropyl)-1-((2,6-dimethylcyclohexyl)methyl)-2-oxo-1,4-diazepan-5-yl)methyl)-2-naphthamide]
< 100 | O=C(/C=C/c1ccc(Cl)cc1)NC[C@@H]1CCN(CC(c2ccccc2)c2ccccc2)C(=O)[C@H](CCCN2CCCC2)N1 [Compound 258, (E)-3-(4-chlorophenyl)-N-(((3S,5S)-1-(2,2-diphenylethyl)-2-oxo-3-(3-(pyrrolidin-1-yl)propyl)-1,4-diazepan-5-yl)methyl)acrylamide]
< 100 | C[C@@H](C(c1ccccc1)c1ccccc1)N1CC[C@@H](CNC(=O)c2ccc3ccccc3c2)N[C@@H](CCCNC(=N)N)C1=O [Compound 203, N-(((3S,5S)-1-((S)-1,1-diphenylpropan-2-yl)-3-(3-guanidinopropyl)-2-oxo-1,4-diazepan-5-yl)methyl)-2-naphthamide]

The remaining lines, values behind:

Structure (SMILES) | IC50 [nM]
Cc1cc(F)cc(CN2CC[C@@H](CNC(=O)c3ccc4ccccc4c3)N[C@@H](CCCN)C2=O)c1 [Compound 321, N-(((3S,5S)-3-(3-aminopropyl)-1-(3-fluoro-5-methylbenzyl)-2-oxo-1,4-diazepan-5-yl)methyl)-2-naphthamide] | < 10000
CC[C@H](CN1CC[C@@H](CNC(=O)c2ccc(Cl)c(Cl)c2)N[C@@H](CCN2CCCCC2)C1=O)c1ccccc1 [Compound 410, 3,4-dichloro-N-(((3S,5S)-2-oxo-1-((S)-2-phenylbutyl)-3-(2-(piperidin-1-yl)ethyl)-1,4-diazepan-5-yl)methyl)benzamide] | < 100
CC(C)c1ccc(/C=C/C(=O)NC[C@@H]2CCN(CC(c3ccccc3)c3ccccc3)C(=O)[C@H](CCN3CCCCC3)N2)cc1 [Compound 396, (E)-N-(((3S,5S)-1-(2,2-diphenylethyl)-2-oxo-3-(2-(piperidin-1-yl)ethyl)-1,4-diazepan-5-yl)methyl)-3-(4-isopropylphenyl)acrylamide] | < 100
Cc1cc(C)cc(CN2CC[C@@H](CNC(=O)c3ccc4ccccc4c3)N[C@@H](CCCNC(=N)N)C2=O)c1 [Compound 286, N-(((3S,5S)-1-(3,5-dimethylbenzyl)-3-(3-guanidinopropyl)-2-oxo-1,4-diazepan-5-yl)methyl)-2-naphthamide] | < 1000
Cc1ccc(/C=C/C(=O)NC[C@@H]2CCN(CC(c3ccccc3)c3ccccc3)C(=O)[C@H](CCN3CCCCC3)N2)cc1 [Compound 285, (E)-N-(((3S,5S)-1-(2,2-diphenylethyl)-2-oxo-3-(2-(piperidin-1-yl)ethyl)-1,4-diazepan-5-yl)methyl)-3-p-tolylacrylamide] | < 100
COc1ccccc1/C=C/C(=O)NC[C@@H]1CCN(CC(c2ccccc2)c2ccccc2)C(=O)[C@H](CCCNC(=N)N)N1 [Compound 169, (E)-N-(((3S,5S)-1-(2,2-diphenylethyl)-3-(3-guanidinopropyl)-2-oxo-1,4-diazepan-5-yl)methyl)-3-(2-methoxyphenyl)acrylamide] | < 1000
COc1cc(CN2CC[C@@H](CNC(=O)c3ccc4ccccc4c3)N[C@@H](CCCN)C2=O)cc(OC)c1 [Compound 316, N-(((3S,5S)-3-(3-aminopropyl)-1-(3,5-dimethoxybenzyl)-2-oxo-1,4-diazepan-5-yl)methyl)-2-naphthamide] | < 10000
O=C(NC[C@@H]1CCN(Cc2cc(Cl)cc(Cl)c2)C(=O)[C@H](CCN2CCCCC2)N1)c1ccc2ccccc2c1 [Compound 327, N-(((3S,5S)-1-(3,5-dichlorobenzyl)-2-oxo-3-(2-(piperidin-1-yl)ethyl)-1,4-diazepan-5-yl)methyl)-2-naphthamide] | < 100
NCCC[C@@H]1N[C@H](CNC(=O)c2ccc3ccccc3c2)CCN(Cc2c(Cl)cccc2Cl)C1=O [Compound 315, N-(((3S,5S)-3-(3-aminopropyl)-1-(2,6-dichlorobenzyl)-2-oxo-1,4-diazepan-5-yl)methyl)-2-naphthamide] | < 10000
O=C(/C=C/c1ccc(OC(F)(F)F)cc1)NC[C@@H]1CCN(Cc2cc(Cl)cc(Cl)c2)C(=O)[C@H](CCN2CCCCC2)N1 [Compound 532, (E)-N-(((3S,5S)-1-(3,5-dichlorobenzyl)-2-oxo-3-(2-(piperidin-1-yl)ethyl)-1,4-diazepan-5-yl)methyl)-3-(4-(trifluoromethoxy)phenyl)acrylamide] | < 10
CC[C@H](CN1CC[C@@H](CNC(=O)c2ccc(Cl)c(Cl)c2)N[C@@H](CCN2CCC(F)(F)CC2)C1=O)c1ccccc1 [Compound 483, 3,4-dichloro-N-(((3S,5S)-3-(2-(4,4-difluoropiperidin-1-yl)ethyl)-2-oxo-1-((S)-2-phenylbutyl)-1,4-diazepan-5-yl)methyl)benzamide] | < 100
CC[C@H](CN1CC[C@@H](CNC(=O)c2ccc3cc(Cl)ccc3c2)N[C@@H](CCN2CCCCC2)C1=O)c1ccsc1 [Compound 511, 6-chloro-N-(((3S,5S)-2-oxo-3-(2-(piperidin-1-yl)ethyl)-1-((S)-2-(thiophen-3-yl)butyl)-1,4-diazepan-5-yl)methyl)-2-naphthamide] | < 10
N=C(N)NCCC[C@@H]1N[C@H](CNC(=O)c2ccc(-c3ccccc3)cc2)CCN(CC2CCCCC2)C1=O [Compound 480, N-(((3S,5S)-1-(cyclohexylmethyl)-3-(3-guanidinopropyl)-2-oxo-1,4-diazepan-5-yl)methyl)biphenyl-4-carboxamide] | < 1000
